In US20090124587A1, “METHODS FOR TREATING CANCER USING 17alpha-HYDROXYLASE/C17,20-LYASE INHIBITORS” (priority 2007, published 2009):
Like-named read-outs stand apart in the source and are kept apart here.

Assay: Food effect PK study, two single oral 1000 mg doses of abiraterone acetate, fed (high fat) vs fasted
Type: in vivo, human
Settings: for clearance: read-out: Cl F obs (converted); for Vd/F: read-out: Vz F obs; for concentration at 1.017 h: sample time 1.017; for concentration at 6 h: sample time 6.000; for concentration at 2 h: sample time 2.000; for concentration at 4 h: sample time 4.000; for concentration at 8.033 h: sample time 8.033; for concentration at 24 h: sample time 24.000; for concentration at 48.083 h: sample time 48.083
Description: To measure the amount of abiraterone and abiraterone acetate in the samples, these compounds were extracted from 100 uL human plasma using solid phase extraction (SPE) with cation mixed-mode polymer cartridges. Extracts were evaporated to dryness before reconstitution and analysis. Chromatography was carried out using a Luna™ C5 column (5 μm, 50 mm×2.1 mm id) with a gradient mobile phase consisting of 10 mM ammonium acetate and 2% propan-2-ol in acetonitrile. The flow rate was 0.2 mL/min and the run time 10.5 minutes. Abiraterone and abiraterone acetate were ionized using the electrospray interface in positive ion mode. Detection of analytes was via tandem mass spectrometry (MS/MS) in the multiple reaction monitoring (MRM) mode.
PK modeling was conducted using a non-compartmental model, extra vascular input for plasma with WinNonLin Software®. Pharmacokinetic parameters estimated in the model include:
Based on the above results, the PK parameters for a single dose of 1000 mg/day of abiraterone acetate were further studied in the 3 subjects who were administered the 1000 mg/day dose and in 3 additional subjects. Two single oral doses (1000 mg) of abiraterone acetate were administered separately, one concomitantly with food of high fat content and one in fasting state. The first single dose was administered on day −9 with PK blood samples being taken at 1, 2, 4, 6, 8, 24, 48 and 72 hours post dose. The second single dose was administered on day −3 with PK blood samples being taken at 1, 2, 4, 6, 8, 24 and 48 hours post dose for analysis.

[1] = human, plasma, oral, 1000 mg, Patient 19, 1000 mg, Fasted
[2] = human, plasma, oral, 1000 mg, Patient 19, 1000 mg, Fed
[3] = human, plasma, oral, 1000 mg, Patient 19, Fasted
[4] = human, plasma, oral, 1000 mg, Patient 19, Fed
[5] = human, plasma, oral, 1000 mg, Patient 20, 1000 mg, Fasted
[6] = human, plasma, oral, 1000 mg, Patient 20, 1000 mg, Fed
[7] = human, plasma, oral, 1000 mg, Patient 20, Fasted
[8] = human, plasma, oral, 1000 mg, Patient 20, Fed
[9] = human, plasma, oral, 1000 mg, Patient 21, 1000 mg, Fasted
[10] = human, plasma, oral, 1000 mg, Patient 21, 1000 mg, Fed
[11] = human, plasma, oral, 1000 mg, Patient 21, Fasted
[12] = human, plasma, oral, 1000 mg, Patient 21, Fed
[13] = human, plasma, po, 1000 mg, mean, 1000 mg single oral dose, Fasted
[14] = human, plasma, po, 1000 mg, mean, 1000 mg single oral dose, Fed
[15] = mean, 1000 mg single oral dose, Fasted
[16] = mean, 1000 mg single oral dose, Fed

concentration at 4.033 hr (human, plasma, oral, 1000 mg, Patient 15, Fed, sample time 4.033 hr): 484 nM | concentration at 6.083 hr (human, plasma, oral, 1000 mg, Patient 15, Fed, sample time 6.083 hr): 1120 nM | concentration at 8.067 hr (human, plasma, oral, 1000 mg, Patient 15, Fed, sample time 8.067 hr): 512 nM | concentration at 24.05 hr (human, plasma, oral, 1000 mg, Patient 15, Fed, sample time 24.050 hr): 84.3 nM | concentration at 46.05 hr (human, plasma, oral, 1000 mg, Patient 15, Fed, sample time 46.050 hr): 18.1 nM | clearance [1]: 12200 mL/min | Vd/F [1]: 8490 L | clearance [2]: 4900 mL/min | Vd/F [2]: 4250 L | AUC(0-inf) [3]: 3.91 µM·h | AUC(0-t) [3]: 3.8 µM·h | Cmax [3]: 432 nM | Tmax [3]: 6 h | concentration at 1.05 hr (human, plasma, oral, 1000 mg, Patient 19, Fasted, sample time 1.050 hr): 0 nM | concentration at 2.083 hr (human, plasma, oral, 1000 mg, Patient 19, Fasted, sample time 2.083 hr): 71.9 nM | concentration at 4.017 hr (human, plasma, oral, 1000 mg, Patient 19, Fasted, sample time 4.017 hr): 334 nM | concentration at 6 hr (human, plasma, oral, 1000 mg, Patient 19, Fasted, sample time 6.000 hr): 432 nM | concentration at 8.017 hr (human, plasma, oral, 1000 mg, Patient 19, Fasted, sample time 8.017 hr): 177 nM | concentration at 24.067 hr (human, plasma, oral, 1000 mg, Patient 19, Fasted, sample time 24.067 hr): 21.6 nM | concentration at 48.1 hr (human, plasma, oral, 1000 mg, Patient 19, Fasted, sample time 48.100 hr): 9.1 nM | AUC(0-inf) [4]: 9.73 µM·h | AUC(0-t) [4]: 9.47 µM·h | Cmax [4]: 1020 nM | Tmax [4]: 6.13 h | concentration at 0.967 hr (human, plasma, oral, 1000 mg, Patient 19, Fed, sample time 0.967 hr): 0 nM | concentration at 2.2 hr (human, plasma, oral, 1000 mg, Patient 19, Fed, sample time 2.200 hr): 466 nM | concentration at 3.933 hr (human, plasma, oral, 1000 mg, Patient 19, Fed, sample time 3.933 hr): 973 nM | concentration at 6.133 hr (human, plasma, oral, 1000 mg, Patient 19, Fed, sample time 6.133 hr): 1020 nM | concentration at 8 hr (human, plasma, oral, 1000 mg, Patient 19, Fed, sample time 8.000 hr): 344 nM | concentration at 23.717 hr (human, plasma, oral, 1000 mg, Patient 19, Fed, sample time 23.717 hr): 63.6 nM | concentration at 49.3 hr (human, plasma, oral, 1000 mg, Patient 19, Fed, sample time 49.300 hr): 18 nM | clearance [5]: 3680 mL/min | Vd/F [5]: 4880 L | clearance [6]: 2030 mL/min | Vd/F [6]: 3210 L | AUC(0-inf) [7]: 13 µM·h | AUC(0-t) [7]: 12.1 µM·h | Cmax [7]: 1700 nM | Tmax [7]: 2.27 h | concentration at 1.017 h [7]: 58.5 nM | concentration at 2.267 h (human, plasma, oral, 1000 mg, Patient 20, Fasted, sample time 2.267): 1700 nM | concentration at 3.833 h (human, plasma, oral, 1000 mg, Patient 20, Fasted, sample time 3.833): 1270 nM | concentration at 6 h [7]: 976 nM | concentration at 7.917 h (human, plasma, oral, 1000 mg, Patient 20, Fasted, sample time 7.917): 256 nM | concentration at 24.283 h (human, plasma, oral, 1000 mg, Patient 20, Fasted, sample time 24.283): 118 nM | concentration at 48.417 h (human, plasma, oral, 1000 mg, Patient 20, Fasted, sample time 48.417): 40.8 nM | AUC(0-inf) [8]: 23.5 µM·h | AUC(0-t) [8]: 22.8 µM·h | Cmax [8]: 1580 nM | Tmax [8]: 8.03 h | concentration at 1.017 h [8]: 32.2 nM | concentration at 2 h [8]: 201 nM | concentration at 4 h [8]: 422 nM | concentration at 6 h [8]: 1400 nM | concentration at 8.033 h [8]: 1580 nM | concentration at 24 h [8]: 152 nM | concentration at 47.517 h (human, plasma, oral, 1000 mg, Patient 20, Fed, sample time 47.517): 55.4 nM | concentration at 71.333 h (human, plasma, oral, 1000 mg, Patient 20, Fed, sample time 71.333): 25.3 nM | clearance [9]: 6610 mL/min | Vd/F [9]: 7190 L | clearance [10]: 6180 mL/min | Vd/F [10]: 5180 L | AUC(0-inf) [11]: 7.21 µM·h | AUC(0-t) [11]: 6.93 µM·h | Cmax [11]: 648 nM | Tmax [11]: 2.17 h | concentration at 1 h (human, plasma, oral, 1000 mg, Patient 21, Fasted, sample time 1.000): 414 nM | concentration at 2.167 h (human, plasma, oral, 1000 mg, Patient 21, Fasted, sample time 2.167): 648 nM | concentration at 4.15 h (human, plasma, oral, 1000 mg, Patient 21, Fasted, sample time 4.150): 360 nM | concentration at 6.117 h (human, plasma, oral, 1000 mg, Patient 21, Fasted, sample time 6.117): 396 nM | concentration at 8.05 h (human, plasma, oral, 1000 mg, Patient 21, Fasted, sample time 8.050): 231 nM | concentration at 24.333 h (human, plasma, oral, 1000 mg, Patient 21, Fasted, sample time 24.333): 65.5 nM | concentration at 48.083 h [11]: 16.4 nM | concentration at 71.7 h (human, plasma, oral, 1000 mg, Patient 21, Fasted, sample time 71.700): 15.2 nM | AUC(0-inf) [12]: 7.71 µM·h | AUC(0-t) [12]: 7.45 µM·h | Cmax [12]: 1280 nM | Tmax [12]: 6 h | concentration at 1.167 h (human, plasma, oral, 1000 mg, Patient 21, Fed, sample time 1.167): 17.3 nM | concentration at 2 h [12]: 64.3 nM | concentration at 4 h [12]: 102 nM | concentration at 6 h [12]: 1280 nM | concentration at 8.033 h [12]: 372 nM | concentration at 24 h [12]: 49.3 nM | concentration at 48.083 h [12]: 18.9 nM | AUC(0-inf) [13]: 5.32 µM·h | AUC(0-t) [13]: 5.03 µM·h | Cmax [13]: 659 nM | Tmax [13]: 3.09 h | Vd/F [13]: 10100 L | AUC(0-inf) [14]: 12.4 µM·h | AUC(0-t) [14]: 12.1 µM·h | Cmax [14]: 1400 nM | Tmax [14]: 5.21 h | Vd/F [14]: 3800 L | Cl F obs [15]: 861.6 L/h | HL [15]: 9.9 h | Cl F obs [16]: 260.2 L/h | HL [16]: 10.9 h | effect of food on drug levels (patient 21): negligible | difference in mean drug levels between the dosing regimes (fed vs fasted) (previously (before extended cohort)): up to a four fold difference
Compound: C[C@]12CC[C@H](O)CC1=CC[C@@H]1[C@@H]2CC[C@]2(C)C(c3cccnc3)=CC[C@@H]12 [Abiraterone]
